The subject of test [1] is B. subtilis PY79. Kind of test: Crystal of biotin analog on plates, growth inhibition. Type of test: cell-based. The conditions noted are these: for Zones of killing around crystal: PY79, EMS1, EMS2 on TBAB, BIOS or MIN plates, after 24 h; for Growth inhibition around crystal, zones of clearing: EMS-mutagenized PY79, TBAB plates, overnight at 37° C. The source says: Biotin analogs were used to select for strains that were deregulated for biotin production. Among the mutations sought were those in a potential homolog of the E. coli birA gene. However, it is expected that selection for resistance to biotin analogs can also yield strains with mutations in the operator site(s) of birA, or in genes encoding functions responsible for the transport of the analogs into the cell. Analog-resistant mutants can also contain a gene or genes that encode enzymes resistant to inhibitors including, but not limited to, feedback inhibitors. Several biotin analogs (homobiotin, α-dehydrobiotin, and 5(2-thienyl)pentanoic acid) were obtained from Nippon Roche KK (Kanagsua, Japan). Mutagenized cells of B. subtilis were plated on TBAB (Difco Tryptose Blood Agar Base, cat. no. 0232-01-9) plates containing a crystal of each biotin analog.
An additional 27 mutants were selected subsequently in similar plate screenings for their resistance to the analogs homobiotin (HB) and α-dehydrobiotin (α-DB). For this latter selection, B. subtilis PY79 cultures were subjected to mutagenesis with EMS in two independent experiments. […] Overnight cultures of PY79, EMS1, and EMS2 grown in rich medium were plated on TBAB (rich), BIOS (biotin free) or MIN (glucose-minimal) plates and a crystal of homobiotin or α-dehydrobiotin was placed on each of the plates. […] Individual colonies were picked from homobiotin plates or α-dehydrobiotin plates and restreaked on BIOS plates containing α-dehydrobiotin or homobiotin.

Test [2] deals with B. subtilis birA/azl^r strains. Kind of test: Screen of parents and Trp+ transductants for homobiotin resistance. Type of test: cell-based. On the set-up: key to Homobiotin resistant/sensitive: R: resistant; S: sensitive. The source says: The birA mutation from either HB3 or α-DB16 was introduced into either PA3 or PA6 by a two step transduction process. First, PA3 and PA6 were made Trp^− by transduction with trpE::Tn917lac (Perkins and Youngman, (Proc. Nat'l Acad. Sci USA 83:140-144 (1986)) selecting for erythromycin resistance. The birA mutations were transduced from HB3 or α-DB16, selecting for Trp^+. Parents and Trp^+ transductants were screened for homobiotin resistance and azelaic acid resistance. PA6 was homobiotin sensitive, so double mutants could be identified among Trp^+ transductants by screening for homobiotin resistant colonies. Only about 60% of Trp^+ transductants were also homobiotin resistant (this may be due to Tn917 distortion of the map distance between birA and trpE normally 90% linkage by transduction). PA3 was resistant to homobiotin, so direct identification of double mutants was not possible. However, 60% of the transductants were double mutants as judged by increased biotin secretion, see below.

Test [3] has as its system PY79 bioI::cat. Kind of test: Growth of bioI::cat mutants on biotin-free medium with supplements. It is filed as cell-based, B. subtilis. The conditions noted are these: biotin 33 μg/ml.
In test [4] the test system is SPβ::bioW-lacZ. The test can be described thus: SPβ-borne single-copy bioW-lacZ translational fusion, β-galactosidase assay. Type of test: cell-based, B. subtilis. On the procedure: Other strains, in addition to the lacZ fusion strain of Example IVA, can be constructed for deciphering biotin regulatory mechanisms. For example, Applicants recognized that insertion of the plasmid-borne bioW-lacZ fusion into the chromosome causes technical problems because the integrated plasmid amplifies in copy number. Thus the expression of the bioW-lacZ fusion at single copy-number and at a site distinct from the bio operon was tested by introducing the fusion into a modified SPβ specialized transducing phage (see, e.g., Zuber et al., J. Bacteriol. 169:2223-2230, 1987, hereby incorporated by reference).
Two isolates of PY79 (SPβ::bioW-lacZ) and BI421 (SPβ::bioW-lacZ) were assayed for β-galactosidase activity as described above.
Biotin regulation was also examined in two independently isolated biotin analog-resistant mutants. HB3 contains a spontaneous birA mutation and α-DB9 contains an α-dehydrobiotin resistant mutation unlinked to either bio or birA. These strains were transduced, grown, and assayed as described above, except that α-DB9 (SPβ::bioW-lacZ) was assayed during mid-exponential growth.

For test [5], the system named is bioW-lacZ translational fusion. The test can be described thus: bioW-lacZ translational fusion integrated at the bio locus, β-galactosidase liquid ONPG assay. It is filed as cell-based, B. subtilis. The text has this:
A translational lacZ fusion was constructed to confirm the activity and regulation of the putative promoter and regulatory region, and to assess the relative level of expression of the B. subtilis biotin operon in a variety of contexts. This was accomplished by inserting a 3.1 kb BamHI-BglII fragment containing a promoter-less lacZ coding region into the BamHI site of pBIO350, to give pBIO397 and pBIO398.
To test the bioW-lacZ fusion for biotin-regulated expression in B. subtilis, Bio^+ partial diploids were constructed. The cat cassette was cloned into pBIO397 using the single SmaI site located within the polylinker region downstream from the lacZ gene. One recombinant plasmid, pBIO397cat, with the cat gene oriented in the same direction as the translational fusion, was used to generate Bio^+ partial diploids. Competent cells of the prototrophic B. subtilis strain PY79 were transformed with pBIO397cat plasmid DNA selecting for Cm^r. Transformants should only arise by recombination into the chromosome. This leaves an intact copy of the bio operon, allowing activity of the lac fusion to be assessed in the absence of added biotin.
The promoter of the BamHI to PstI fragment cloned in pBIO350 is regulated by biotin. Two Cm^r Bio^+ partial diploids containing the bioW-lacZ fusion were tested for β-galactosidase activity in biotin-free medium in the presence or absence of biotin (100 μg/liter). In liquid ONPG assays, both strains were regulated specifically by biotin. The level of β-galactosidase was repressed in the presence of biotin and induced in its absence to 24 to 85-fold higher specific activity (Table 3). This strain with the bioW::lacZ fusion integrated at the bio operon has also been used to isolate new biotin analog-resistant mutants (see below) on X-gal indicator plates.

For test [6], the system named is B. subtilis PY79 and azelaic acid resistant mutants. Kind of test: Growth inhibition by azelaic acid, minimal agar. Type of test: cell-based. The conditions noted are these: addition of 1 μg/l biotin. The text has this:
Azelaic acid, a straight chain C9 dicarboxylic acid, is a homolog of pimelic acid and is thought to be an intermediate in the conversion of oleic acid to pimelic acid (see Ohsugi and Inoue (1981) Agric. Biol. Chem. 45: 2355-2356, hereby incorporated by reference).
Seven spontaneous mutants that outgrew the background of PY79 on 2 g/l Azelaic acid were isolated. The resistance to azelaic acid appeared to be a stable trait in all but one case (see below). The seven mutants were provisionally named PA1-PA7 (PY79 Azelaic acid resistant). PA1 through PA7 were grown in test tubes in VY medium, and biotin production was assayed using E. coli indicator strains (Table 15). The mutants fell into two classes, those that yielded more biotin than PY79 (PA5, PA6) and those that were similar to PY79 (PA1, 2, 3, and 7). PA4 appeared to be either unstable or not a true mutant and was dropped from further study. Applicants also noticed that the mutants fell into two classes with respect to colony size on minimal agar with 2 g/l azelaic acid, and that these two classes corresponded to the two classes of biotin producers (Table 11). The mutants with the most biotin in the supernatant (PA5 and PA6) gave small colonies, while the biotin non-secreters, PA1, 2, 3, and 7, gave large colonies. PA1 and PA3 secreted a compound that cross-fed PY79 (i.e., reversed the azelaic acid inhibition of PY79) on minimal plates containing 2 g/l azelaic acid.

The structures appear in SMILES notation.

Turning to `O=C(O)CCCCC[C@@H]1SC[C@@H]2NC(=O)N[C@@H]21` [Homobiotin, homobiotin], the “Zones of killing around crystal” value in test [1] is reported as “zones of killing were observed”. Also, the Homobiotin resistant/sensitive entry in test [2] (parent PA3, birA donor HB3, isolate 1) is recorded as “R”; in test [2] (parent PA3, birA donor HB3, isolate 2), “R”; in test [2] (parent PA3, birA donor α-DB16, isolate 1), “R”; in test [2] (parent PA6, birA donor HB3, isolate 2) it was “R”; in test [2] (parent PA6, birA donor HB3, isolate 6), “R”; in test [2] (parent PA6, birA donor α-DB16, isolate 8), “R”. The Homobiotin resistant/sensitive result in test [2] (parent PA6, birA donor α-DB16, isolate 14) is reported as “R”; in test [2] (strain HB3), “R”; in test [2] (strain PA3) it was “R”; in test [2] (strain PA6) it was “S”; in test [2] (strain PY79), “S”; in test [2] (strain α-DB16) it was “R”. In addition, in test [2] (strain PA3), the “Homobiotin resistance of PA3” value is on record as “resistant”. Further, the “Homobiotin sensitivity of PA6” value in test [2] (strain PA6) is recorded as “sensitive”.

Regarding `O=C(O)CCCCc1cccs1` [5(2-thienyl) pentanoic acid, 5(2-thienyl)pentanoic acid], the “Growth inhibition around crystal, zones of clearing” value in test [1] is recorded as “inhibited the growth”.

`O=C(O)CCCC[C@@H]1SC[C@@H]2NC(=O)N[C@@H]21` [Biotin]: in test [3], the “Growth of bioI::cat insertion colonies” value is given as “grew to wild-type levels”. For the same compound, the “Fold Increase of β-galactosidase activity, −Biotin over +Biotin (100 μg/l)” value (“Fold Increase” below) came to 1.5 Fold in test [4] (BI421 (SPβ::bioW-lacZ)/#1 (birA)); 0.9 Fold in test [4] (BI421 (SPβ::bioW-lacZ)/#3 (birA)); 1.3 Fold in test [4] (HB3 (SPβ::bioW-lacZ)/#1 (birA)); 0.8 Fold in test [4] (HB3 (SPβ::bioW-lacZ)/#3 (birA)); 15 Fold in test [4] (PY79 (SPβ::bioW-lacZ)/#1); 9 Fold in test [4] (PY79 (SPβ::bioW-lacZ)/#3). The “Fold Increase” value turned out to be 9.2 Fold in test [4] (α-D89 (SPβ::bioW-lacZ)/#1); 12.3 Fold in test [4] (α-D89 (SPβ::bioW-lacZ)/#3); 24 Fold in test [5] (PY79(bioW-lacZ)12A, Late Log); 53 Fold in test [5] (PY79(bioW-lacZ)12A, Late Stationary); 65 Fold in test [5] (PY79(bioW-lacZ)12A, Stationary); 33 Fold in test [5] (PY79(bioW-lacZ)14A, Late Log). Besides, the “Fold Increase” value was 85 Fold in test [5] (PY79(bioW-lacZ)14A, Late Stationary) and 82 Fold in test [5] (PY79(bioW-lacZ)14A, Stationary). Also, the “β-galactosidase activity +Biotin (100 μg/l)” value in test [4] (BI421 (SPβ::bioW-lacZ)/#1 (birA), OD600 1.00-0.936) was 0.67 Miller Units; in test [4] (BI421 (SPβ::bioW-lacZ)/#3 (birA), OD600 1.07-0.92), 0.96 Miller Units; in test [4] (HB3 (SPβ::bioW-lacZ)/#1 (birA), OD600 1.068-1.076) it was 0.24 Miller Units; in test [4] (HB3 (SPβ::bioW-lacZ)/#3 (birA), OD600 1.213-1.320), 0.18 Miller Units; in test [4] (PY79 (SPβ::bioW-lacZ)/#1, OD600 1.04-1.08) it was 0.04 Miller Units; in test [4] (PY79 (SPβ::bioW-lacZ)/#3, OD600 0.988-0.960), 0.06 Miller Units. Also, the “β-galactosidase activity +Biotin (100 μg/l)” value came to 0.18 Miller Units in test [4] (α-D89 (SPβ::bioW-lacZ)/#1, OD600 0.892-0.528, one measurement); 0.11 Miller Units in test [4] (α-D89 (SPβ::bioW-lacZ)/#3, OD600 1.344-1.200); 0.47 Miller Units in test [5] (PY79(bioW-lacZ)12A, Late Log (OD600 0.7-0.8)); 0.13 Miller Units in test [5] (PY79(bioW-lacZ)12A, Late Stationary (OD600 1.4-1.6)); 0.17 Miller Units in test [5] (PY79(bioW-lacZ)12A, Stationary (OD600 1.1-1.4)); 0.64 Miller Units in test [5] (PY79(bioW-lacZ)14A, Late Log (OD600 0.7--0.8)). In addition, the “β-galactosidase activity +Biotin (100 μg/l)” value in test [5] (PY79(bioW-lacZ)14A, Late Stationary (OD600 1.213-1.320)) is recorded as 0.10 Miller Units; in test [5] (PY79(bioW-lacZ)14A, Stationary (OD600 1.1-1.4)), 0.15 Miller Units. The “β-galactosidase repressed in the presence of biotin, induced in the absence of biotin” value in test [4] (PY79 (SPβ::bioW-lacZ)) is listed as 9-15 fold. Moreover, the “Reversal of azelaic acid growth inhibition of wild-type B. subtilis” value in test [6] is listed as “reversed”.

On to `O=C(O)/C=C/CCC1SCC2NC(=O)NC21` (stereo not drawn) [α-dehydrobiotin], for which, in test [1], the “Growth inhibition around crystal, zones of clearing” value is “inhibited the growth” and the “Zones of killing around crystal” value was “zones of killing were observed”.
